Measured values from US20030216358A1, “Method for enhancing bone mineral density gain” (priority 2003, published 2003).

Tested on: postmenopausal women
Test: Clinical data, summary in words: BMD and bone turnover markers after alendronate followed by raloxifene
Assay type: in vivo, human
Settings: alendronate for one year followed sequentially by raloxifene alone
Procedure: A phase 3, multicenter, double-blind, placebo-controlled, randomized clinical trial was conducted. Objectives of the trial included comparing the effects of 12 months treatment with raloxifene HCl (60 mg/day), alendronate (10 mg/day), or the combination of the two agents together versus placebo on BMD at the lumbar spine and at the hip and also metabolic markers of bone turnover. Additional objectives included comparing the effects of raloxifene 60 mg/day versus placebo during a second year of study on the offset of action of raloxifene or alendronate, as assessed by these same efficacy parameters.
Three hundred thirty-one (331) subjects were randomly assigned to one of four initial treatment groups: placebo, raloxifene 60 mg/day, alendronate 10 mg/day or raloxifene plus alendronate together. After one year of therapy all subjects were re-randomized to receive either placebo or raloxifene 60 mg/day for an additional year of study. All subjects received approximately 500 mg of elemental calcium plus 400-600 I.U. of vitamin D/day throughout the entire study. […] In addition subjects had BMD and biochemical markers of bone turnover (including serum osteocalcin) repeated at six monthly intervals.

With O=C(c1ccc(OCCN2CCCCC2)cc1)c1c(-c2ccc(O)cc2)sc2cc(O)ccc12 [raloxifene, 6-hydroxy-2-(4-hydroxyphenyl)-3-[4-(2-piperidinoethoxy)benzoyl]-benzo[b]thiophene] the bone turnover markers was “either return towards normal or remain suppressed but do not further decrease” and the BMD (compared to alendronate followed by placebo) was “further increases of BMD”.
